Laboratory results as given in patent US7041446B2, “Labeled protein and its producing method, labeling compound to be used in the method, and method for analyzing function of genes” (priority 1998, dated 2006).

What was measured:
[1] = tested on: protein synthesis of animal cells; settings: cited from earlier work
[2] = tested on: protein synthesis of bacteria; settings: cited from earlier work
[3] = tested on: C-terminal of thioredoxin; assay: Labeling of translated protein in cell-free transcription-translation system of E. coli; assay type: biochemical; settings: for linkage to the C-terminal of thioredoxin: cell-free transcription-translation system of E. coli
Description: rCpPur (30 pmol) was phosphorylated by T4 polynucleotide kinase (10 units) in the presence of γ-^33P-ATP (9.25 MBq). The reaction was carried out under the condition of 37° C. for 1 hour. After the reaction was over, the reaction mixture was heated at 70° C. for 20 minutes to inactivate the enzyme.
Labeling reaction was carried out using a cell-free transcription-translation system of E. coli. The reaction mixture (25 μl) of the cell-free transcription-translation system of E. coli had the following composition: 7.5 μl of E. coli S30 extract (containing T7 RNA polymerase), 10 μl of E. coli S30 premix, 2.5 μl of an amino acid mixed solution, 1 μl of an RNase inhibitor, 1 μg of plasmid (thioredoxin), and 0.0003 to 0.3 μM (final concentration) of the ^33P-rCpPur described above. As a control, the reaction was carried out also in a system containing ^35S-methionine (1.2 μM). After the reaction was carried out at 37° C. for 30 minutes, precipitation was performed with acetone. A buffer solution (pH 8) containing 1% SDS was added to the precipitate, and then heated at 90° C. for 5 minutes for dissolution, separated by SDS-15% polyacrylamide gel electrophoresis, and analyzed using an image analyzer (Fuji Photo Film, BAS 2000). […] When the concentration of ^33P-rCpPur was 0.3 μM, a distinct band corresponding to the full-length thioredoxin was detected at the position of apparent molecular weight of 12 kDa. […] The band with an apparent molecular weight of 12 kDa was detected even when labeled with ^35S-methionine (final concentration: 1.2 μM) (FIG. 3).
Fluorescent labeling of a protein by a cell-free transcription-translation system of E. coli in the presence of Fluorpur and Fluorthiopur was examined. […] After the reaction was carried out at 37° C. for 30 minutes, precipitation was performed with acetone. A buffer solution (pH 8) containing 1% SDS was added to the precipitate, then heated at 90° C. for 5 minutes for dissolution, separated by SDS-15% polyacrylamide gel electrophoresis, and detected for fluorescent bands of protein using a fluorescent gel scanner (Fluor Imager 585, Molecular Dynamics). Measurement was made at an excitation wavelength of 488 nm and an emission wavelength of 520 nm. FIGS. 4A, 4B and 4C show the results of fluorescent labeling of thioredoxin with Fluorpur and Fluorthiopur. For both Fluorpur and Fluorthiopur in a concentration ranges of 0.36 to 1.44 μM, fluorescent bands were detected at the position of apparent molecular weight of 12 kDa indicated by an arrow (FIGS. 4A and 4B).

[4] = tested on: full-length protein of thioredoxin; assay: Labeling of thioredoxin in cell-free transcription-translation system containing wheat germ lysate; assay type: biochemical, E. coli
Description: (§1) The fluorescent labeling of the full-length protein of thioredoxin with Fluorpur and Fluorthiopur was confirmed also in a cell-free transcription-translation system containing nuclease treated rabbit reticulocyte lysate or wheat germ lysate. The respective optimal concentrations of Fluorpur and Fluorthiopur necessary for fluorescent labeling were 0.3 to 50 μM in the system containing nuclease treated rabbit reticulocyte lysate and 10 to 50 μM in the case of the system containing wheat germ lysate.

[5] = tested on: full-length protein of thioredoxin; assay: Labeling of thioredoxin in cell-free transcription-translation system containing nuclease treated rabbit reticulocyte lysate; assay type: biochemical, E. coli
Description: as §1

Molecule	inhibition of protein synthesis [1]	inhibition of protein synthesis [2]	linkage to the C-terminal of thioredoxin [3]	incorporation compared with Fluorpur ([3]; fluorescent labeling of thioredoxin, E. coli system)	labeling of the full-length protein of thioredoxin [4]	labeling of the full-length protein of thioredoxin [5]	band with an apparent molecular weight of 12 kDa ([3]; control label, final concentration 1.2 μM)
COc1ccc(C[C@H](N)C(=O)N[C@H]2[C@@H](O)[C@H](n3cnc4c(N(C)C)ncnc43)O[C@@H]2CO)cc1 [puromycin, 3′-[α-amino-p-methoxyhydro-cinnamamido]-3′-deoxy-N,N′-dimethyladenosine]	inhibit the protein synthesis	inhibit the protein synthesis					
fluoresceinylthiophophopuromycin [Fluorthiopur]			linked to the C-terminal of the full-length protein	more or less efficiently	can be confirmed	can be confirmed	
CSCC[C@H](N)C(=O)O [^35S-methionine, reference compound]							detected
fluoresceinylphosphopuromycin [Fluorpur]			linked to the C-terminal of the full-length protein		can be confirmed	can be confirmed	
